Drawing on US9695149B2, “1,2,6-substituted benzimidazoles as flap modulators” (JANSSEN PHARMACEUTICA NV, priority 2013, dated 2017), this text covers Ki and IC50 for 20 molecules.

Where a name gives a salt, the structure may show the parent alone. Bounds are passed on as bounds.

The target of assay [1] is human FLAP (Homo sapiens (Human), UniProt P20292). As to the kind of experiment: FLAP binding assay (HTRF format). As to conditions: human FLAP-containing Sf-9 membranes, wild type; average of runs. As to the method: (§1) The ability of the compounds of the present invention to treat a FLAP-mediated disease and/or disorder, or associated symptoms or complications thereof, was determined using the following procedures. Binding assay data represent the average value obtained from two different assay plates, with samples run in duplicate on each plate. Human whole blood assay data represent a single replicate on an assay plate using whole blood from at least one healthy donor.
The assay below is used to test the modulatory activity of compounds against FLAP. Human and mouse FLAP-encoding DNA was amplified by polymerase chain reaction and cloned into pFastBac1 (Invitrogen) with a NH2-terminal 6-His tag for expression in Spodoptera frugiperda (Sf-9) cells. FLAP-containing membranes were prepared as was a FITC-labeled FLAP modulator (3-(3-(tert-butylthio)-1-(4-chlorobenzyl)-5-(quinolin-2-ylmethoxy)-1H-indol-2-yl)-2,2-dimethylpropanoic acid). The FLAP binding assay is performed in HTRF format (homogeneous time resolved fluorescence). […] The reaction is allowed to proceed for two hours after which the plate is read on an Envision plate reader in HTRF mode. Data are expressed as a HTRF ratio.
For human FLAP binding assays, data are analyzed with 3DX Explorer software. […] For analysis, data from multiple runs are averaged and each compound may be tested in 2 to 20 runs. Each run comprises two plates and each plate includes duplicates. Data from each plate is averaged and data are imported into 3DX. The data from multiple runs are aggregated as the average of duplicates of the calculated ratios in order to calculate Ki and IC50 values. Numbers in parentheses are the number of runs for the assay.

Assay [2] deals with leukotriene pathway in human whole blood. As to the kind of experiment: Human whole blood assay (LTB4, A23187-stimulated). Type of assay: cell-based. As to conditions: human whole blood diluted 1:1 in RPMI, calcium ionophore A23187 7 μg/mL, 30 min. As to the method: as §1
An in vitro cellular assay was performed using human whole blood collected in heparin-containing tubes, which was used to test the ability of compounds to modulate the leukotriene pathway in human whole blood. The blood was diluted 1:1 in RPMI medium, pre-incubated for 15 min at 37° Celsius with test compounds at various concentrations, and then stimulated with calcium ionophore, A23187 (7 μg/mL), for 30 min at 37° Celsius. The samples were then centrifuged and plasma was removed. The plasma was diluted in assay buffer and LTB4 levels were measured using a commercial kit (Enzo Life Sciences). The concentration of each compound that was required for half-maximal inhibition (modulation) of […] (IC50) was calculated by a 4-parameter equation using the program GraphPad Prism (GraphPad software). For analysis, data are imported into 3DX and aggregated as the average of duplicates of the calculated ratios in order to calculate Ki and IC50 values. Numbers in parentheses are the number of runs for the assay.

human FLAP, sequence (P20292 whole entry): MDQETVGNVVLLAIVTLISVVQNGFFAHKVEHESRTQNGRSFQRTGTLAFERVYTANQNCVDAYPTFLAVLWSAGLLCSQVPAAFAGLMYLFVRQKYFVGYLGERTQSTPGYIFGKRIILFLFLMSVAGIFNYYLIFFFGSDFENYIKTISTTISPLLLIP

By Ki is commonly meant a measure of affinity in units of concentration, obtained from inhibition or displacement. Read a low Ki as tighter binding. Usually IC50 stands for the midpoint of a concentration-inhibition curve. Turning to `Cc1ccc(COc2ccc3nc(C4CCCC[C@H]4C(=O)O)n(Cc4cccc(N5CCCC(F)(F)C5)c4)c3c2)nc1` (mixture of isomers) [Example 222, racemic cis-2-{1-[3-(3,3-Difluoropiperidin-1-yl)benzyl]-6-[(5-methylpyridin-2-yl)methoxy]-1H-benzimidazol-2-yl}cyclohexanecarboxylic acid], the Ki in assay [1] was determined as 0.0038 µM. Further, the IC50 in assay [2] (Homo sapiens, 0.5 h) was determined as 0.31 µM.
On to `Cc1ccc(COc2ccc3nc(C4CCCC[C@H]4C(=O)O)n(Cc4cccc(C)c4)c3c2)nc1` (mixture of isomers) [Example 201, racemic cis-2-{1-(3-Methylbenzyl)-6-[(5-methylpyridin-2-yl)methoxy]-1H-benzimidazol-2-yl}cyclohexanecarboxylic acid], for which the Ki in assay [1] came to 0.012 µM. For the same molecule, in assay [2], the IC50 was determined as 1.68 µM.
`Cc1ccc(COc2ccc3nc(C4CCCC[C@H]4C(=O)O)n(Cc4cccc(C)c4)c3c2)nc1` (mixture of isomers) [Example 200, racemic trans-2-{1-(3-Methylbenzyl)-6-[(5-methylpyridin-2-yl)methoxy]-1H-benzimidazol-2-yl}cyclohexanecarboxylic acid] showed a Ki in assay [1] of 0.03 µM. The IC50 in assay [2] (Homo sapiens, 0.5 h) is 3.14 µM.
The like results for `Cc1ccc(COc2ccc3nc(C4CCCC[C@H]4C(=O)O)n(Cc4cc(N5CCC(F)(F)CC5)ccc4F)c3c2)nc1` (mixture of isomers) [Example 208, racemic cis-2-{1-[5-(4,4-Difluoropiperidin-1-yl)-2-fluorobenzyl]-6-[(5-methylpyridin-2-yl)methoxy]-1H-benzimidazol-2-yl}cyclohexanecarboxylic acid] were, in that order, 0.0095 µM and 0.37 µM.
The like results for `Cc1ccc(COc2cc(F)c3nc(CC4(C(=O)O)CCCC4)n(Cc4ccccc4Br)c3c2)nc1` [Example 231, 1-({1-(2-Bromobenzyl)-4-fluoro-6-[(5-methylpyridin-2-yl)methoxy]-1H-benzimidazol-2-yl}methyl)cyclopentanecarboxylic acid as the trifluoroacetic salt] were, in that order, 0.18 µM and greater than 30 µM.
On the same counts, the results for `Cc1cnc(COc2ccc3nc(CC(C)(C)C(=O)O)n(Cc4cccc(Br)c4)c3c2)c(F)c1` [Example 191, 3-{1-(3-Bromobenzyl)-6-[(3-fluoro-5-methylpyridin-2-yl)methoxy]-1H-benzimidazol-2-yl}-2,2-dimethylpropanoic acid] are 0.07 µM and greater than 10 µM.
Consider `Cn1ccc(COc2ccc3nc(C4CCCC[C@H]4C(=O)O)n(Cc4cccc(Br)c4)c3c2)n1` (single isomer, unassigned) [Example 197, (1S*,2R*)-2-{1-(3-Bromobenzyl)-6-[(1-methyl-1H-pyrazol-3-yl)methoxy]-1H-benzimidazol-2-yl}cyclohexanecarboxylic acid], for which the Ki in assay [1] was 0.0066 µM. For the same molecule, the IC50 in assay [2] (Homo sapiens, 0.5 h) is 1.81 µM.
On the same counts, the results for `Cc1ccc(COc2ccc3nc(C4CCCC[C@H]4C(=O)O)n(Cc4cccc(N5CCC(F)(F)CC5)c4)c3c2)nc1` (mixture of isomers) [Example 221, racemic cis-2-{1-[3-(4,4-Difluoropiperidin-1-yl)benzyl]-6-[(5-methylpyridin-2-yl)methoxy]-1H-benzimidazol-2-yl}cyclohexanecarboxylic acid] are 0.0066 µM and 0.5 µM.
Turning to `Cc1ccc(COc2ccc3nc(C4CCCC[C@H]4C(=O)O)n(Cc4ccccc4C)c3c2)nc1` (mixture of isomers) [Example 207, racemic cis-2-{1-(2-Methylbenzyl)-6-[(5-methylpyridin-2-yl)methoxy]-1H-benzimidazol-2-yl}cyclohexanecarboxylic acid], the Ki in assay [1] came out at 0.031 µM. Besides, the IC50 in assay [2] was determined as 1.81 µM.
`Cc1ccc(COc2cc(F)c3nc(CC4(C(=O)O)CCCC4)n(Cc4cccc(Br)c4)c3c2)nc1` [Example 230, 1-({1-(3-Bromobenzyl)-4-fluoro-6-[(5-methylpyridin-2-yl)methoxy]-1H-benzimidazol-2-yl}methyl)cyclopentanecarboxylic acid as the trifluoroacetic salt]: the affinity in assay [1] corresponds to a Ki of 0.073 µM. The IC50 in assay [2] (Homo sapiens, 0.5 h) was greater than 30 µM.
On the same counts, the results for `Cc1cnc(COc2ccc3nc(CC(C)(C)C(=O)O)n(Cc4cc(Br)ccc4F)c3c2)c(F)c1` [Example 193, 3-{1-(5-Bromo-2-fluorobenzyl)-6-[(3-fluoro-5-methylpyridin-2-yl)methoxy]-1H-benzimidazol-2-yl}-2,2-dimethylpropanoic acid] are 0.12 µM and 5.55 µM.
On the same counts, the results for `COc1ncc(-c2cccc(Cn3c(C4CCCC[C@H]4C(=O)O)nc4ccc(OCc5ccc(C)cn5)cc43)c2)cn1` (mixture of isomers) [Example 195, racemic cis-2-{1-[3-(2-Methoxypyrimidin-5-yl)benzyl]-6-[(5-methylpyridin-2-yl)methoxy]-1H-benzimidazol-2-yl}cyclohexanecarboxylic acid] are 0.019 µM and 1.43 µM.
The like results for `Cc1cnc(COc2ccc3nc(C4CCCC[C@H]4C(=O)O)n(Cc4ccc(N5CCC(C(F)(F)F)CC5)cc4F)c3c2)c(F)c1` (mixture of isomers) [Example 192, racemic cis-2-(6-[(3-Fluoro-5-methylpyridin-2-yl)methoxy]-1-{2-fluoro-4-[4-(trifluoromethyl)piperidin-1-yl]benzyl}-1H-benzimidazol-2-yl)cyclohexanecarboxylic acid] were, in that order, 0.00095 µM and 0.11 µM.
`CCC(CC)(Cc1nc2ccc(OCc3ccn(C)n3)cc2n1Cc1cccc(N2CCCCC2)c1)C(=O)O` [Example 212, 2-Ethyl-2-({6-[(1-methyl-1H-pyrazol-3-yl)methoxy]-1-(3-piperidin-1-ylbenzyl)-1H-benzimidazol-2-yl}methyl)butanoic acid]: in assay [1], the Ki is 0.09 µM. Besides, the IC50 in assay [2] (Homo sapiens, 0.5 h) amounted to 1.08 µM.
`Cn1ccc(COc2ccc3nc(C4CCCC[C@H]4C(=O)O)n(Cc4cc(Br)ccc4F)c3c2)n1` (mixture of isomers) [Example 233, racemic cis-2-{1-(5-Bromo-2-fluorobenzyl)-6-[(1-methyl-H-pyrazol-3-yl)methoxy]-1H-benzimidazol-2-yl}cyclohexanecarboxylic acid] came in with a Ki in assay [1] of 0.035 µM. Further, in assay [2] (Homo sapiens, 0.5 h), the 50% inhibitory concentration (IC50) worked out at 2.26 µM.
As to `Cc1ccc(COc2ccc3nc(C4CCCC[C@H]4C(=O)O)n(Cc4cccc(Br)c4)c3c2)nc1` (mixture of isomers) [Example 228, racemic cis-2-{1-(3-Bromobenzyl)-6-[(5-methylpyridin-2-yl)methoxy]-1H-benzimidazol-2-yl}cyclohexanecarboxylic acid], in assay [1], the affinity, expressed as Ki, was 0.0068 µM. In addition, the IC50 in assay [2] (Homo sapiens, 0.5 h) came to 4.01 µM.
The like results for `Cn1ccc(COc2ccc3nc(C4CCCC[C@H]4C(=O)O)n(Cc4cccc(N5CCC(F)(F)CC5)c4)c3c2)n1` (mixture of isomers) [Example 203, racemic cis-2-{1-[3-(4,4-Difluoropiperidin-1-yl)benzyl]-6-[(1-methyl-1H-pyrazol-3-yl)methoxy]-1H-benzimidazol-2-yl}cyclohexanecarboxylic acid] were, in that order, 0.018 µM and 0.73 µM.
The like results for `CCC(CC)(Cc1nc2ccc(OCc3ccc(C)cn3)cc2n1Cc1ccc(N2CCC(F)(F)C2)cc1)C(=O)O` [Example 226, 2-({1-[4-(3,3-Difluoropyrrolidin-1-yl)benzyl]-6-[(5-methylpyridin-2-yl)methoxy]-1H-benzimidazol-2-yl}methyl)-2-ethylbutanoic acid] were, in that order, 0.017 µM and roughly 3.2 µM.
The like results for `Cc1ccc(COc2ccc3nc(C4CCCC[C@H]4C(=O)O)n(Cc4cccc(N5CC(F)(F)C5)c4)c3c2)nc1` (mixture of isomers) [Example 219, racemic cis-2-{1-[3-(3,3-Difluoroazetidin-1-yl)benzyl]-6-[(5-methylpyridin-2-yl)methoxy]-1H-benzimidazol-2-yl}cyclohexanecarboxylic acid] were, in that order, 0.0091 µM and 1.6 µM.
As to `Cc1ccc(COc2ccc3nc(C4CCCC[C@H]4C(=O)O)n(Cc4ccccc4C)c3c2)nc1` (mixture of isomers) [Example 206, racemic trans-2-{1-(2-Methylbenzyl)-6-[(5-methylpyridin-2-yl)methoxy]-1H-benzimidazol-2-yl}cyclohexanecarboxylic acid], in assay [1], the affinity, expressed as Ki, was 0.045 µM. In assay [2] (Homo sapiens, 0.5 h), the IC50 came out at 1.27 µM.
